Key:
human mGluR2 receptor = biological target: T1, human mGluR2 receptor (Homo sapiens, UniProt Q14416); experiment: [35S]GTPγS binding assay (GTPγS-PAM): positive allosteric modulation in presence of glutamate at EC25, membranes from transfected CHO cells; type: biochemical; details: in presence of mGluR2 agonist glutamate at predetermined EC25 concentration, averages of duplicate values of 11-concentration response curves; for EC50: read-out: GTPgS - hR2 PAM pEC50 (converted)
T1 construct: expressed in transfected cells; host or cells: CHO cells (membrane preparation)
T1 sequence (Q14416 19-872): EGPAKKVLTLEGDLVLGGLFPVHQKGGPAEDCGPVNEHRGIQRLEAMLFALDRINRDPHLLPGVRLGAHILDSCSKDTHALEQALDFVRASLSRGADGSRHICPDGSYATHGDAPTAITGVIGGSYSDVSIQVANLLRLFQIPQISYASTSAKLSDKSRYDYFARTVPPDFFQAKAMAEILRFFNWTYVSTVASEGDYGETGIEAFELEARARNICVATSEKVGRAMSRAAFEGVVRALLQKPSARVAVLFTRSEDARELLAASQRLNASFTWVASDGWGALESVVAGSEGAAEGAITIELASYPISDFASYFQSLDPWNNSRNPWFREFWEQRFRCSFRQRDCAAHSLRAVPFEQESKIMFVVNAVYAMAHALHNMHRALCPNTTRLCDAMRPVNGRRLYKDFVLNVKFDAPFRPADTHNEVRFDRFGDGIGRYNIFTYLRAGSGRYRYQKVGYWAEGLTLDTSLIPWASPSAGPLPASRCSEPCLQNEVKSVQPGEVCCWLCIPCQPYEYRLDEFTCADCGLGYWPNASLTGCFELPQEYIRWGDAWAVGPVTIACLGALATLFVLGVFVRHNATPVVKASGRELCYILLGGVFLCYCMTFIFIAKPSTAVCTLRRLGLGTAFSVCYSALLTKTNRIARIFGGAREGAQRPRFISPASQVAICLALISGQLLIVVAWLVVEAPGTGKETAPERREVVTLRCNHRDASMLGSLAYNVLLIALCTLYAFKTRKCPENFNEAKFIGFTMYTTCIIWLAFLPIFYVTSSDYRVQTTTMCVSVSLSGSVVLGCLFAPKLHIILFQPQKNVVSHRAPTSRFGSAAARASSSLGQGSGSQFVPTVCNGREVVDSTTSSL
Summary of the method: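 Potentiation was read as filter-retained [35S]GTPγS (0.1 nM final, 30 min, 30° C.) after a 30 min, 30° C. preincubation of human mGluR2 CHO membranes (15 μg/well) with EC25 glutamate and 11 modulator concentrations spanning 0.3 nM-50 μM. The buffer was 50 mM HEPES pH 7.4, NaCl, MgCl2, 50 μM GDP and saponin. Cold 10 μM GTP defined nonspecific binding; data were fitted by a four-parameter logistic.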

Row | SMILES | EC50 (human mGluR2 receptor) [nM] | melting point [°C] | GTPgS - hR2 PAM pEC50 (human mGluR2 receptor)
1 | N#Cc1c(-c2ccc(OC(F)(F)F)cc2)ccn(CC2CCCC2)c1=O [1-007] | 398 | 159 | –
2 | N#Cc1c(-c2cccs2)ccn(CC2CCCCC2)c1=O [1-008] | 251 | 148 | –
3 | N#Cc1c(-c2ccccc2)ccn(CC2CCCCC2)c1=O [1-009] | 1580 | 149 | –
4 | COc1ccccc1-c1ccn(CC2CCCCC2)c(=O)c1C#N [1-011] | 2000 | 60 | –
5 | COc1ccc(-c2ccn(CC3CCC(C)CC3)c(=O)c2C#N)cc1 (stereo not shown) [1-013] | 126 | 128 | –
6 | CC1CCC(Cn2ccc(-c3ccc(OC(F)(F)F)cc3)c(C#N)c2=O)CC1 (stereo not shown) [1-014] | 100 | 143 | –
7 | Cc1ccc(Cn2ccc(-c3ccco3)c(C#N)c2=O)cc1 [1-018] | 2510 | 155 | –
8 | Cc1ccc(Cn2ccc(-c3cccs3)c(C#N)c2=O)cc1 [1-019] | 794 | 118 | –
9 | COc1ccc(-c2ccn(Cc3ccc(C(F)(F)F)cc3)c(=O)c2C#N)cc1 [1-024] | 126 | 181 | –
10 | N#Cc1c(-c2ccccc2)ccn(Cc2cccc(OC(F)(F)F)c2)c1=O [1-030] | 316 | 153 | –
11 | N#Cc1c(-c2ccc(CN3CCCCC3)cc2)ccn(Cc2ccc(OC(F)(F)F)cc2)c1=O [1-031] | 2510 | 167 | –
12 | N#Cc1c(-c2ccc(N3CCOCC3)cc2)ccn(Cc2ccc(OC(F)(F)F)cc2)c1=O [1-032] | 794 | 190 | –
13 | N#Cc1c(-c2ccc(CN3CCOCC3)cc2)ccn(Cc2ccc(OC(F)(F)F)cc2)c1=O [1-033] | 2510 | 97 | –
14 | C[C@@H]1CN(Cc2ccc(-c3ccn(Cc4ccc(OC(F)(F)F)cc4)c(=O)c3C#N)cc2)C[C@H](C)O1 [1-035] | 794 | 136 | –
15 | N#Cc1c(-c2ccc(OCCN3CCOCC3)cc2)ccn(Cc2ccc(OC(F)(F)F)cc2)c1=O [1-037] | 2000 | 184 | –
16 | N#Cc1c(-c2ccc(OCCCN3CCOCC3)cc2)ccn(Cc2ccc(OC(F)(F)F)cc2)c1=O [1-038] | 794 | 140 | –
17 | COc1ccc(-c2ccn(Cc3ccc(OC(F)(F)F)cc3)c(=O)c2C#N)cc1 [1-039] | 158 | 169 | –
18 | N#Cc1c(-c2ccc(CCCO)cc2)ccn(Cc2ccc(OC(F)(F)F)cc2)c1=O [1-040] | 200 | 180 | –
19 | N#Cc1c(-c2ccc(Oc3ccccc3)cc2)ccn(Cc2ccc(OC(F)(F)F)cc2)c1=O [1-041] | 251 | 155 | –
20 | N#Cc1c(-c2ccccc2)ccn(Cc2ccc(-c3ccccc3)cc2)c1=O [1-042] | 158 | 185 | –
21 | N#Cc1c(-c2cccs2)ccn(Cc2ccc(C(F)(F)F)nc2)c1=O [1-046] | 1260 | 185 | –
22 | COc1ccc(-c2ccn(CCOc3ccccc3)c(=O)c2C#N)cc1 [1-048] | 1000 | 188 | –
23 | CCCn1ccc(-c2cccs2)c(C#N)c1=O [1-050] | – | 135 | –
24 | N#Cc1c(-c2cccs2)ccn(CCCc2ccccc2)c1=O [1-052] | 2000 | 118 | –
25 | CCCCn1ccc(-c2ccc(OC(F)(F)F)cc2)c(C#N)c1=O [1-055] | 1260 | 123 | –

Row | SMILES | EC50 (human mGluR2 receptor) [nM] | melting point [°C] | GTPgS - hR2 PAM pEC50 (human mGluR2 receptor)
26 | CCCCn1ccc(-c2ccc(N3CCCCC3)cc2)c(C#N)c1=O [1-058] | 316 | 122 | –
27 | CCCCn1ccc(-c2cccs2)c(C#N)c1=O [1-059] | 5010 | 103 | –
28 | CCCCn1ccc(-c2ccc(OCc3cccc(C)n3)cc2)c(C#N)c1=O [1-063] | 1000 | 102 | –
29 | CC(C)Cn1ccc(-c2cccs2)c(C#N)c1=O [1-077] | 3980 | 108 | –
30 | CC(C)Cn1ccc(-c2ccc(Oc3ccncc3)cc2)c(C#N)c1=O [1-078] | 3980 | 170 | –
31 | CCCC(C)n1ccc(-c2cccs2)c(C#N)c1=O (stereo not shown) [1-079] | 5010 | 103 | –
32 | CC(C)CCn1ccc(-c2cccs2)c(C#N)c1=O [1-082] | 2000 | 123 | –
33 | CC(C)CCn1ccc(-c2ccccc2)c(C#N)c1=O [1-084] | – | 142 | –
34 | Cc1ccc(-c2ccn(CCC(C)C)c(=O)c2C#N)cc1 [1-085] | 794 | 102 | –
35 | CC(C)CCn1ccc(-c2ccc(C(C)(C)C)cc2)c(C#N)c1=O [1-086] | 63.1 | 168 | –
36 | CC(C)CCn1ccc(-c2ccccc2F)c(C#N)c1=O [1-087] | 3980 | 125 | –
37 | CC(C)CCn1ccc(-c2cccc(F)c2)c(C#N)c1=O [1-088] | 2510 | 161 | –
38 | CC(C)CCn1ccc(-c2cccc(Cl)c2)c(C#N)c1=O [1-090] | 794 | 123 | –
39 | CC(C)CCn1ccc(-c2ccc(Cl)cc2)c(C#N)c1=O [1-091] | 1580 | 137 | –
40 | CC(C)CCn1ccc(-c2ccc(-c3ccccc3)cc2)c(C#N)c1=O [1-093] | 25.1 | 172 | –
41 | CC(C)CCn1ccc(-c2cccc(-c3ccccc3)c2)c(C#N)c1=O [1-094] | 501 | 131 | –
42 | CC(C)CCn1ccc(-c2ccc(CCCO)cc2)c(C#N)c1=O [1-095, 3-cyano-4-(4-hydroxypropylphenyl)-1-(3-methylbutyl)pyridine-2(1H)-one] | 631 | 85 | –
43 | CC(C)CCn1ccc(-c2cccc(O)c2)c(C#N)c1=O [1-096] | 1580 | 201 | –
44 | CC(C)CCn1ccc(-c2ccc(O)cc2)c(C#N)c1=O [1-097] | 1580 | 210 | –
45 | CC(C)CCn1ccc(-c2ccc(CO)cc2)c(C#N)c1=O [1-098] | – | 145 | –
46 | COc1cccc(-c2ccn(CCC(C)C)c(=O)c2C#N)c1 [1-101] | – | 96 | 5.5
47 | COCc1ccc(-c2ccn(CCC(C)C)c(=O)c2C#N)cc1 [1-103, 3-cyano-4-(4-methoxymethylphenyl)-1-(3-methylbutyl)pyridine-2(1H)-one] | 2000 | 91 | –
48 | CCCOc1ccc(-c2ccn(CCC(C)C)c(=O)c2C#N)cc1 [1-105] | 398 | 107 | –
49 | COCc1cccc(-c2ccn(CCC(C)C)c(=O)c2C#N)c1 [1-107] | 3160 | 67 | –
50 | COc1ccc(-c2ccn(CCC(C)C)c(=O)c2C#N)cc1OC [1-110, 4-(3,4-dimethoxyphenyl)-3-cyano-1-(3-methylbutyl)pyridine-2(1H)-one] | 2510 | 52 | –

Row | SMILES | EC50 (human mGluR2 receptor) [nM] | melting point [°C] | GTPgS - hR2 PAM pEC50 (human mGluR2 receptor)
51 | CNC(=O)COc1ccc(-c2ccn(CCC(C)C)c(=O)c2C#N)cc1 [1-127] | – | 156 | –
52 | CC(=O)NCc1cccc(-c2ccn(CCC(C)C)c(=O)c2C#N)c1 [1-178] | – | 157 | –
53 | CC(C)CCn1ccc(-c2ccc(C(=O)NCc3ccncc3)cc2)c(C#N)c1=O [1-213] | – | 96 | –
54 | CC(C)CCn1ccc(-c2ccc(CN3CCOCC3)cc2)c(C#N)c1=O [1-229] | – | 148 | –
55 | CC(C)CCn1ccc(-c2ccc(-n3ccnc3)cc2)c(C#N)c1=O [1-235] | – | 151 | –
56 | CC(C)CCn1ccc(-c2ccc(CCC(=O)O)cc2)c(C#N)c1=O [1-240] | – | 169 | –
57 | CC(C)CCn1ccc(OCCOCc2ccccc2)c(C#N)c1=O [1-281] | – | 83 | –
58 | CC(C)CCn1ccc(OCCN2CCN(c3ccccn3)CC2)c(C#N)c1=O [2-036] | – | 159 | –
59 | N#Cc1c(N2CCC(c3ccccc3)CC2)ccn(CC2CC2)c1=O [4-047, 3-cyano-1-cyclopropylmethyl-4-(4-phenyl-piperidin-1-yl)-pyridine-2(1H)-one] | – | 128 | –
60 | CCCCn1ccc(-c2ccc3c(cnn3Cc3ccccn3)c2)c(C#N)c1=O [5-023] | 794 | – | –
61 | CC(C)CCn1ccc(-c2ccc3c(cnn3Cc3ccncc3)c2)c(C#N)c1=O [5-025] | 398 | – | –
62 | Cc1c(-c2ccn(CCC(C)C)c(=O)c2C#N)cnn1-c1ccccc1 [5-027] | 316 | – | –
63 | Cc1nc(-c2ccccc2)sc1-c1ccn(CCC(C)C)c(=O)c1C#N [5-028] | 316 | – | –
64 | CC(C)CCn1ccc(-n2ncc3ccccc32)c(C#N)c1=O [5-029] | – | 234 | –
65 | CC(C)CCn1ccc(N2CCOc3ccccc32)c(C#N)c1=O [5-030] | 6310 | – | –
66 | COc1cc2c(cc1OC)CN(c1ccn(CCC(C)C)c(=O)c1C#N)CC2 [5-032] | 1260 | – | –
67 | CC(C)CCn1ccc(N2CCC3(CCc4ccccc43)CC2)c(C#N)c1=O [5-033] | 39.8 | – | –
68 | CC(C)CCn1ccc(N2CCC3(CCN(c4ncccn4)CC3)CC2)c(C#N)c1=O [5-034] | 398 | – | –
69 | CC(C)CCn1ccc(N2CCC3(CC2)COc2ccccc2O3)c(C#N)c1=O [5-036] | 251 | – | –
70 | CC(C)CCn1ccc(N2CCc3c(sc4ccc(Cl)cc34)C2)c(C#N)c1=O [5-042] | 200 | – | –
71 | CC(C)CCn1ccc(N2CCCN(c3ccccc3)CC2)c(C#N)c1=O [5-043] | 1000 | – | –
72 | COc1ccccc1N1CCCN(c2ccn(CCC(C)C)c(=O)c2C#N)CC1 [5-044] | 1000 | – | –
73 | Cc1onc(-c2ccccc2)c1COc1ccn(CCC(C)C)c(=O)c1C#N [5-045] | 3980 | – | –
74 | N#Cc1c(C#Cc2ccncc2)ccn(CC2CCCCC2)c1=O [5-049] | 1580 | – | –

Reference: US9266834B2, “1, 4-disubstituted 3-cyano-pyridone derivatives and their use as positive allosteric modulators of MGLUR2-receptors” (JANSSEN PHARMACEUTICALS, INC., priority 2006, dated 2016)
